The source of these data is US20110321190A1, “METHOD OF POSITIVE PLANT SELECTION USING SORBITOL DEHYDROGENASE” (Metabolix, Inc., priority 2009, published 2011).

Entries after “also recorded” stand apart in the source; their conditions may differ.

Data set [1] concerns Arabidopsis thaliana leaf and root explants. As to the kind of experiment: Calli growth of Arabidopsis thaliana leaf and root explants in the presence of different carbon sources. Format: cell-based. The following applies: sole carbon source as in Example 1; 4 weeks dark incubation at 25° C. The procedure:
Growth of cultures of Arabidopsis thaliana, a model dicot species, were also examined to determine if they were able to grow in the presence of sorbitol as a sole carbon source. Leaf and root explants were excised from sterile seedlings of Arabidopsis and were plated on medium containing maltose, fructose, or sorbitol, or no carbon supplement as described in Example 1.

The test system of data set [2] is tobacco leaf pieces. Description: Callus induction and shoot regeneration from tobacco leaves on different sugars as sole carbon source. Format: cell-based. The following applies: sole carbon source: sorbitol 16 g/L, fructose 15.8 g/L; 4 weeks in tissue culture. On the procedure: To test whether sorbitol dehydrogenase can be used as a positive selection marker in tobacco, pieces of tobacco leaves were tested on media containing different sugars as a sole carbon source.
Sterile grown tobacco leaves were cut into pieces of approximately 0.5-1 cm^2. Leaf pieces were transferred onto MS media containing minimal organics (MSP002 from Caisson Laboratories, North Logan, Utah, USA), 1 mg/L 6-BAP (6-benzylaminopurine) in 1N NaOH, 100 ug/L NAA (α-naphtahalene acetic acid), and the following carbon sources: no sugar; sorbitol, (16 g/L); fructose, (15.8 g/L); sucrose (30 g/L). Explants were maintained in tissue culture for 4 weeks with the following light cycle: 16 hrs in the light at 23° C.; 8 hrs in the dark at 20° C.; relative humidity approximately 45%.

The test system of data set [3] is switchgrass (Panicum virgatum L. cv. 'Alamo') callus cultures. Description: Growth of switchgrass callus cultures in the presence of different carbon sources. Format: cell-based. The following applies: wild-type callus; sole carbon source: maltose 83.3 mM, fructose 111 mM, sorbitol 41.2 mM; 4 weeks dark incubation at 28° C. The source says:
The in vitro response of various plants grown on medium supplemented with different sugar sources was investigated. For these purposes, switchgrass (Panicum virgatum L. cv. ‘Alamo’) was chosen as a representative monocot species. Highly embryogenic callus cultures of switchgrass were initiated from mature caryopses according to established procedures (Denchev, P. D. and B. V. Conger, Crop Sci., 34: 1623-1627 (1994)) and transferred to callus multiplication media [media consists of MS basal salts (product#MS002, Caisson Laboratories, North Logan, Utah, USA), 6-benzylaminopurine (BAP, […]), 2,4-dichlorophenoxyacetic acid (2,4-D, […]), and agar (8 g/L agar), pH 5.6]. The media was supplemented with carbon sources as indicated in the following concentrations: maltose (83.3 mM), fructose (111 mM), sorbitol (41.2 mM), or no carbon source. After 4 weeks of dark incubation at 28° C., the callus multiplication ability in the presence of various carbon supplements or no carbon supplement was visually examined.

Data set [4] relates to tomato cells. To be noted: examples of the cited Trulson patents; cited from earlier work.
Data set [5] concerns switchgrass embryogenic callus cultures. As to the kind of experiment: Agrobacterium-mediated transformation of switchgrass with pMBXS323 and selection on sorbitol as sole carbon source. Format: cell-based. To be noted: medium with sorbitol as sole carbon source; 4-6 wks in the dark at 28° C. The procedure: Agrobacterium-mediated transformation of switchgrass was performed as previously described (Somleva et al., 2002; Somleva, 2006). Highly embryogenic callus cultures were co-cultured with Agrobacterium tumifaciens strain AGL1 (Lazo et al., 1991) harboring pMBXS323 (FIG. 2) for three days in the dark at 28° C. The Agrobacterium treated cultures were incubated on a medium without selection for three to five days and then were transferred to medium containing sorbitol as the sole carbon source. […] These portions were carefully separated from the main callus and transferred to fresh selection medium for further callus proliferation. Upon transfer to regeneration medium containing sorbitol as the sole carbon source, these calli sectors developed green pigmentation within 3-5 days and eventually formed green adventitious shoots and emblings (somatic embryo derived plantlets) (FIGS. 3a-b).

Consider `O=C(CO)[C@@H](O)[C@H](O)[C@H](O)CO` [fructose], for which the “callus growth of root and leaf cultures” value in data set [1] is “considerable callus growth”. Also, in data set [2], the “callus generation / induction” value is listed as “Callus induction” and the shoot regeneration entry was “shoot regeneration”. Further, in data set [3], the “callus multiplication ability (visually examined)” value (“callus multiplication ability” below) is “able to proliferate normally and displayed considerable callus growth”.
For the molecule `OC[C@H]1O[C@H](O[C@H]2O[C@H](CO)[C@@H](O)[C@H](O)[C@H]2O)[C@H](O)[C@@H](O)[C@@H]1O` [trehalose], the “growth of tomato cells on the carbon source” value (“growth of tomato cells” for short) in data set [4] is “do not grow”.
In the case of `OC[C@@H](O)[C@@H](O)[C@H](O)[C@H](O)CO` [mannitol], in data set [4], the “growth of tomato cells” value is “do not grow”.
Regarding `OC[C@@H](O)[C@@H](O)[C@H](O)[C@@H](O)CO` [sorbitol], in data set [4], the “growth of tomato cells” value is “do not grow”. Further, the “callus growth of root and leaf cultures” value in data set [1] is “little to no growth”. In data set [2], the “callus generation / induction” value is “Inhibited callus generation” and the shoot regeneration result was “inhibited shoot regeneration”. In addition, in data set [3], the “callus multiplication ability” value was “remained dormant with minimal or no incremental growth; also recorded: reduced growth”.
Regarding `OC[C@H]1O[C@@H](O[C@H]2[C@H](O)[C@@H](O)C(O)O[C@@H]2CO)[C@H](O)[C@@H](O)[C@H]1O` (stereo partly shown) [lactose], the “growth of tomato cells” value in data set [4] is “do not grow”.
In the case of `OC[C@H]1O[C@H](O[C@H]2[C@H](O)[C@@H](O)[C@H](O)O[C@@H]2CO)[C@H](O)[C@@H](O)[C@@H]1O` [maltose], in data set [1], the “callus growth of root and leaf cultures” value is given as “considerable callus growth”. The “callus multiplication ability” value in data set [3] was “able to proliferate normally and displayed considerable callus growth”.
For the molecule “pMBXS323: pCAMBIA3300-derived plant transformation plasmid with CaMV35S promoter, hsp70 intron and sdh gene from Pseudomonas sp. KS-E1806”, the “calli clumps showing formation of new growth” value in data set [5] is recorded as 30-50%.
Take `OCc1ccccc1O[C@@H]1O[C@H](CO)[C@@H](O)[C@H](O)[C@H]1O` [salicin]: the “growth of tomato cells” value in data set [4] was “do not grow”.
